Assay results: ChEMBL document CHEMBL1201862, “PubChem BioAssay data set” (2004)
The source made the active and inactive calls.

What was measured:
[1] = target: T1, Hepatocyte nuclear factor 4-alpha (Homo sapiens, UniProt P41235); type: functional, cell-based;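 also: biochemical luminescence-based dose-response counterscreen measuring inhibition of HNF4 dimerization, run alongside a screen for blockers of ABHD5–perilipin-5 interaction; split luciferase complementation of HNF4 fusion proteins in cell lysate measuring dimerization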
T1 sequence (P41235 whole entry): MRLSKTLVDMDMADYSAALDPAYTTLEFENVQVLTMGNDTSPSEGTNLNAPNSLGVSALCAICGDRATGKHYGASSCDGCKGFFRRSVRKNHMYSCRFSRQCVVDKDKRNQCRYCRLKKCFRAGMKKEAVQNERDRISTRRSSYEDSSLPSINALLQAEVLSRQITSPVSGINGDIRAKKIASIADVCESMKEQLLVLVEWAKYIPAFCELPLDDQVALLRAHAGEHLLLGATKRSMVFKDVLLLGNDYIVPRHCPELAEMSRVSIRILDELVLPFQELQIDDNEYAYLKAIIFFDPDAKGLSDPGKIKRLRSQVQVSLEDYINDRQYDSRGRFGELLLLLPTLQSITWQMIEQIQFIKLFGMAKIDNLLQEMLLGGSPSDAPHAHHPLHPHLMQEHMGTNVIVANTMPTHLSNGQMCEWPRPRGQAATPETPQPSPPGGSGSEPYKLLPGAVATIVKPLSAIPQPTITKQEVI

[2] = target: T2, Sentrin-specific protease 8 (Homo sapiens, UniProt Q96LD8); type: functional
T2 sequence (Q96LD8 whole entry): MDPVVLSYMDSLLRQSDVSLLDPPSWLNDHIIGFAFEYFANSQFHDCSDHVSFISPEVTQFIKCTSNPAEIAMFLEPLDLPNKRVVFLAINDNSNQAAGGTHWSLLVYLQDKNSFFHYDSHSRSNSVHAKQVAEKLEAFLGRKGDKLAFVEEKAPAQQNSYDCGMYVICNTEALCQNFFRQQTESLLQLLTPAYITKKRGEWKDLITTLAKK

[3] = target: T2, Sentrin-specific protease 8; type: functional; remark: listed apart in the source
[4] = target: T3, Low molecular weight phosphotyrosine protein phosphatase (Homo sapiens, UniProt P24666); type: functional; settings: read-out: IC50_Mean;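 also: Dose-response confirmation assay measuring inhibition of LMPTP enzyme activity by fluorescence intensity read-out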
T3 sequence (P24666 whole entry): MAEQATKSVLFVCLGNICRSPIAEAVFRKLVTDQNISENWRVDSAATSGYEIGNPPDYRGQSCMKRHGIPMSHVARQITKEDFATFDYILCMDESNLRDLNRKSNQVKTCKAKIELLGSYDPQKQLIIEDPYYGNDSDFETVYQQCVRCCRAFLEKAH

[5] = activation of miR-122 Renilla sensor silencing – cell-based, Huh7 psiCHECK-miR122, Renilla luciferase, cherry-picked, dose response (AID 651956); type: functional;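 also: huh7 hepatoma cells stably carrying a psiCHECK-2 miR-122 sensor plasmid; renilla luciferase signal reporting endogenous miR-122 activity after 48 h compound exposure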
[6] = general mammalian cell viability loss – activator set, cherry-pick, cytotoxicity control for miR-122 modulator project, dose response (AID 720690); type: functional, cell-based;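 also: HEK293T human cells scored for general mammalian cytotoxicity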
[7] = target: T4, Microphthalmia-associated transcription factor (Homo sapiens, UniProt O75030); assay: reducers of TRPM1 reporter luminescence, concentration series – cell-based, SK-MEL-5, cherry-picked, set 3, MITF inhibitor project, dose response (AID 493073); type: functional;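 also: SK-MEL-5 melanoma cells with luciferase driven by the MITF target TRPM1 promoter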
T4 sequence (O75030 whole entry): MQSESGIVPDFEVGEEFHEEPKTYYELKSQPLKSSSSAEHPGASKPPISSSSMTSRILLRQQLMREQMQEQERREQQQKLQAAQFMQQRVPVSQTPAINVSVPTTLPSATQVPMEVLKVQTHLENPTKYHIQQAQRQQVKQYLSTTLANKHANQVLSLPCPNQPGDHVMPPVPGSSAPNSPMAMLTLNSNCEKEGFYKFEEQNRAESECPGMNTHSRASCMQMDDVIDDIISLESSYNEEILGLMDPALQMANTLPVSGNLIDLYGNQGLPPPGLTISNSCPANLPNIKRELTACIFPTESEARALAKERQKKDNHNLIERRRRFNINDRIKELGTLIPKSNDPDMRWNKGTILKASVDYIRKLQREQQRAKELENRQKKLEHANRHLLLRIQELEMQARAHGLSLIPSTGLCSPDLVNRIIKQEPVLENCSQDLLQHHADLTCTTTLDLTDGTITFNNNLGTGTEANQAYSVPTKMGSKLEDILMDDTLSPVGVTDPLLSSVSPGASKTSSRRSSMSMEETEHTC

[8] = target: T5, DNA repair and recombination protein RAD54-like (Homo sapiens, UniProt Q92698); assay: RAD54 Holliday junction migration blockers – biochemical, fluorescence, cherry-picked samples, dose series, confirmation (AID 651657); type: functional
T5 sequence (Q92698 whole entry): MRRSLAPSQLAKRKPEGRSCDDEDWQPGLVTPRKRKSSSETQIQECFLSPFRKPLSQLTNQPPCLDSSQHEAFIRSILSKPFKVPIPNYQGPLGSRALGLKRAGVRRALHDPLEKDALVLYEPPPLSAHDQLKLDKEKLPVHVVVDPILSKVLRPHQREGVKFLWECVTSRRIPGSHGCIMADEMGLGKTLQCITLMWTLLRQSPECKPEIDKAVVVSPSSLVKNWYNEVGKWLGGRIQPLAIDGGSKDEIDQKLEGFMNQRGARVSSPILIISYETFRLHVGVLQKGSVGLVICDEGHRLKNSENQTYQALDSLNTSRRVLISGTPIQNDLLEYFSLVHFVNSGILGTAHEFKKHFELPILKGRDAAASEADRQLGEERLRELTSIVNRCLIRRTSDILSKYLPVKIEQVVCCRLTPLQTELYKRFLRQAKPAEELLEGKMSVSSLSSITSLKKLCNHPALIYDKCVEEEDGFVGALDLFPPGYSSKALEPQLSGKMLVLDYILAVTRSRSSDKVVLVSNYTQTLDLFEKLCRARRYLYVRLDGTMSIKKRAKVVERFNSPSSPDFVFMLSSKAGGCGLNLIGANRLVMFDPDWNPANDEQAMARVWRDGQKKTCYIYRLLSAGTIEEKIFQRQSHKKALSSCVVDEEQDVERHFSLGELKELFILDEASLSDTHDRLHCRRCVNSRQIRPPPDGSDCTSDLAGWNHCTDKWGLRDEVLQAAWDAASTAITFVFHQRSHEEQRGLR

[9] = target: T6, DNA repair protein RAD52 homolog (Homo sapiens, UniProt P43351); type: functional, biochemical
T6 sequence (P43351 whole entry): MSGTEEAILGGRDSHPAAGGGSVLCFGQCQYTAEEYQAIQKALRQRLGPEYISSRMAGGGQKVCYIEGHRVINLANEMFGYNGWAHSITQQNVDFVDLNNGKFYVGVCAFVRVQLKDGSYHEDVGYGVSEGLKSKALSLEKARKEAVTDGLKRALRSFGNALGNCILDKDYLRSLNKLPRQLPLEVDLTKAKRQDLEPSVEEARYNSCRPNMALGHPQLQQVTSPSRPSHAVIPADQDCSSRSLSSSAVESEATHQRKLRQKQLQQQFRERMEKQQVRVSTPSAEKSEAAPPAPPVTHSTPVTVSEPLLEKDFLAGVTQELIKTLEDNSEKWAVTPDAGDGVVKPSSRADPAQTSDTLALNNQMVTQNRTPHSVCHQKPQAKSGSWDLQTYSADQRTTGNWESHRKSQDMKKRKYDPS

[10] = target: T7, RNA-binding protein pos-1 (Caenorhabditis elegans, UniProt G5EF15); assay: disruptors of C. elegans POS-1 RNA interaction – biochemical, fluorescence polarization, dose response (AID 1964);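 also: purified POS-1 fused to maltose binding protein made in E. coli; potency of compounds blocking POS-1 binding to fluorescent RNA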
T7 sequence (G5EF15 whole entry): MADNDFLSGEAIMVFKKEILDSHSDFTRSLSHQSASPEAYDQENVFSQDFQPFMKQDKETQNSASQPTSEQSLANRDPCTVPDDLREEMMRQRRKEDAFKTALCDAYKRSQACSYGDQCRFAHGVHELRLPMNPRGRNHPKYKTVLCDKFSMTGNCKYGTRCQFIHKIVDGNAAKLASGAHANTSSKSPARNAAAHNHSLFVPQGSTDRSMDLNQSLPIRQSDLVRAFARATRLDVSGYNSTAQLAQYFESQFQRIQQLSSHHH

[11] = target: DNA (cytosine-5)-methyltransferase 1 (Homo sapiens, UniProt P26358); assay: inhibition of DNA methylation by DNMT1 – biochemical, fluorescent molecular beacon, confirmation (AID 602386); type: functional
[12] = target: T8, Rac GTPase-activating protein 1 (Homo sapiens, UniProt Q9H0H5); assay: blockers of MgcRacGAP-driven Rac1 GTP hydrolysis – biochemical, ADP Hunter fluorescence, primary and confirmatory, confirmation (AID 624330); type: functional
T8 sequence (Q9H0H5 whole entry): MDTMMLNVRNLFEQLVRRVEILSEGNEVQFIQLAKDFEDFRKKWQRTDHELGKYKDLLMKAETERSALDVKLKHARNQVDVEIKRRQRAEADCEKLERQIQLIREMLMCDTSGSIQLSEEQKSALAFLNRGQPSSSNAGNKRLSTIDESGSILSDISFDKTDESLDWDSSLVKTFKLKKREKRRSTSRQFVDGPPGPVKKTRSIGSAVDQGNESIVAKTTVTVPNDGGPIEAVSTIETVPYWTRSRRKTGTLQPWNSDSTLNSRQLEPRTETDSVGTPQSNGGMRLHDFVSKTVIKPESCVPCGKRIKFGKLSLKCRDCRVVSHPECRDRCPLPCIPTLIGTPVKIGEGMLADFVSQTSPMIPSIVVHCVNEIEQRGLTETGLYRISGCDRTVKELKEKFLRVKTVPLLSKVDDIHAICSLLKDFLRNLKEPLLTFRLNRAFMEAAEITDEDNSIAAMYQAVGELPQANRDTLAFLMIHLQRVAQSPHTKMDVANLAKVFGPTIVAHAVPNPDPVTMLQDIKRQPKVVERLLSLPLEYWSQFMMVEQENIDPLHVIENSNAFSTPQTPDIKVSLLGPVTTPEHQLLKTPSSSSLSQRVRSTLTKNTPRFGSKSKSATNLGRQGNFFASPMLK

[13] = HIV-1 Vif–A3G interaction blockers – biochemical, TR-FRET, GST-Vif 1-94, biotin-A3G peptide, dose response retest, primary screen (AID 1117319); type: functional;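 also: TR-FRET signal of purified GST-Vif binding a biotinylated A3G peptide; inhibitors lower the FRET signal by blocking Vif and A3G binding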
Cytochrome P450 3A4 = Cytochrome P450 3A4 (Homo sapiens, UniProt P08684);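 also: CYP3A4 tested as one member of a cytochrome P450 panel screen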
[14] = viability loss in HeLa cells – cytotoxicity control for MgcRacGAP inhibitor project, dose response (AID 624300); type: functional
Protein skinhead-1 = target: T9, Protein skinhead-1 (Caenorhabditis elegans, UniProt P34707); type: functional
T9 sequence (P34707 whole entry): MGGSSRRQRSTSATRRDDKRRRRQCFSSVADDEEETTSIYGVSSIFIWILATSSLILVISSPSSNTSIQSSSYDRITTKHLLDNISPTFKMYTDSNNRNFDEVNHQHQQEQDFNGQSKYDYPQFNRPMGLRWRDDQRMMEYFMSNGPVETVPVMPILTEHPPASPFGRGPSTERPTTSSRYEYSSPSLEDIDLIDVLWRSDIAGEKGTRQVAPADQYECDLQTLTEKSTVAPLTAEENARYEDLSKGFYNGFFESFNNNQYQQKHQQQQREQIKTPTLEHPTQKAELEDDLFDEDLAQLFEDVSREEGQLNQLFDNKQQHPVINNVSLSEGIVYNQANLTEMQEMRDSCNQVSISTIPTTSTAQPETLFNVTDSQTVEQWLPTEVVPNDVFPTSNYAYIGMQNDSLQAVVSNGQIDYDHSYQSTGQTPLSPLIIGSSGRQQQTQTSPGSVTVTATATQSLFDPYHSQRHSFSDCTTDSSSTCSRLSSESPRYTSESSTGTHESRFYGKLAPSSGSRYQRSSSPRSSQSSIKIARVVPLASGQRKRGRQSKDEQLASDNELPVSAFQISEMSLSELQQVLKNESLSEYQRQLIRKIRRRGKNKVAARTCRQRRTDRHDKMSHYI

Chain of Cytochrome P450 3A4 (P08684 whole entry): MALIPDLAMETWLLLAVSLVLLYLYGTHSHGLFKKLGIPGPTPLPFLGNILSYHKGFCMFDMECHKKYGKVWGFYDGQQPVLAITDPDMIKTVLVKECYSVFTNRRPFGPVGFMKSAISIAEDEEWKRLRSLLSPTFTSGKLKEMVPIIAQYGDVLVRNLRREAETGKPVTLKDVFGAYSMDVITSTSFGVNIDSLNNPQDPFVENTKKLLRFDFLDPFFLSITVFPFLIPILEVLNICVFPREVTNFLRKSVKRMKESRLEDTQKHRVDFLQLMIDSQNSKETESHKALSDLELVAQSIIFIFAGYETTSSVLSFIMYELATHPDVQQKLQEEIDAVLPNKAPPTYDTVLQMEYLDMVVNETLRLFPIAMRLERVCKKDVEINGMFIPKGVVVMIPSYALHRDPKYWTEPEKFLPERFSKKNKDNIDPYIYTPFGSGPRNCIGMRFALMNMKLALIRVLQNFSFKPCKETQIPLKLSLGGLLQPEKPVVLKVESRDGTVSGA
Chain of DNA (cytosine-5)-methyltransferase 1 (P26358 whole entry): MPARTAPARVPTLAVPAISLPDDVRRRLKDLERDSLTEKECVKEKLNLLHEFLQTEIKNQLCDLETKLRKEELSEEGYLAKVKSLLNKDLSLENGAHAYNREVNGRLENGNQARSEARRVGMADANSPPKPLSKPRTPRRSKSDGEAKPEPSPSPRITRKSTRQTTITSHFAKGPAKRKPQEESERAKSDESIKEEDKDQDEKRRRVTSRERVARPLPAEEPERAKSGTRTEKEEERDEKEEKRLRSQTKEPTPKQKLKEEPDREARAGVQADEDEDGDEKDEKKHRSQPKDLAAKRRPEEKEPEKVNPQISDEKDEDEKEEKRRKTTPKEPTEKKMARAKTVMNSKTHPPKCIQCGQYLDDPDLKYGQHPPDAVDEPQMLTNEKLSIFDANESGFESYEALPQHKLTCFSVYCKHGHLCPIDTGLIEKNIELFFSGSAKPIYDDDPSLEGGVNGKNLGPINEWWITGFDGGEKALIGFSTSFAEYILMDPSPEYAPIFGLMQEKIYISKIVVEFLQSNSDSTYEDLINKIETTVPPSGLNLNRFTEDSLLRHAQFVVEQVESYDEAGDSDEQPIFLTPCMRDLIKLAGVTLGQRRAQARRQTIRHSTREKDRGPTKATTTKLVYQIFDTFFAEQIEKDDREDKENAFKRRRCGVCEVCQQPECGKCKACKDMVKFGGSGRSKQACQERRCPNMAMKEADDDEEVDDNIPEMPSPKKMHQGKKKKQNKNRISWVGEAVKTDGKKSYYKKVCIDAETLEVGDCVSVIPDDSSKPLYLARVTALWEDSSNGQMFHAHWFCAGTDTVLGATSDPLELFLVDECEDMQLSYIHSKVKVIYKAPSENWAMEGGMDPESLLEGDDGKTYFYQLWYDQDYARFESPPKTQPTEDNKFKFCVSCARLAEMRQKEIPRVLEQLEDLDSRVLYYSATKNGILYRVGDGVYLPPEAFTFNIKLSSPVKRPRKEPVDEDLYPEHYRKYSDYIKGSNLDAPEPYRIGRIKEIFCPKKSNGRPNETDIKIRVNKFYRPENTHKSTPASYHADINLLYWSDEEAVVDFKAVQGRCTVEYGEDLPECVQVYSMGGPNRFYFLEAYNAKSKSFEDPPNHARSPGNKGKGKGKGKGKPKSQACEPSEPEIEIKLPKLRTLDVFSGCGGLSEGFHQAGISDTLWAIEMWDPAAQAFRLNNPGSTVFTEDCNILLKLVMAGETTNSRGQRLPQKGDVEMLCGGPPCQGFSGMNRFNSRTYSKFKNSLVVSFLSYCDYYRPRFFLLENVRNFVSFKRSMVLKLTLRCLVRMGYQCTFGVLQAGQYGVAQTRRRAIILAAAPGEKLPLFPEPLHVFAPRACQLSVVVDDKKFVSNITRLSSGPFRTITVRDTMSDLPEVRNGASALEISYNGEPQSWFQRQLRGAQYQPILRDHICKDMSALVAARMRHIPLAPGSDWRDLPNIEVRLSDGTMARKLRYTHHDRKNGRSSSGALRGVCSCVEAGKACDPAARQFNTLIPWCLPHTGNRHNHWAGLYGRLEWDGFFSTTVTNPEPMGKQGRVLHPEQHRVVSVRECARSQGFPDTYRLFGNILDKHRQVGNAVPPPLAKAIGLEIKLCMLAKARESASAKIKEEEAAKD

**Q.** For `Cc1cccc(C)c1OCc1cn(CC(=O)c2ccc(O)cc2)nn1`, which IC50 [1] is on record?
**A.** 4.78 µM (active)

**Q.** With `O=C(O)/C=C/C(=O)Nc1ccc(O)cc1` as the compound, how does the IC50 [2] read?
**A.** 16.2 µM (active)

**Q.** What about the IC50 [3] of the same compound?
**A.** 10.6 µM (active)

**Q.** With `N=c1c(C(=O)NCc2ccco2)cc2c(=O)n3ccccc3nc2n1Cc1ccccc1` as the compound, how does the IC50 [4] read?
**A.** 28.4 µM (inactive)

**Q.** With `CCCCCNC(=O)C(c1ccc(OC)cc1)n1c(=O)c(-c2ccco2)nc2ccccc21` (stereo unspecified) as the compound, how does the IC50 [1] read?
**A.** 3.07 µM (active)

**Q.** For `C[C@H]1CN([C@@H](C)CO)C(=O)c2cc(NC(=O)Nc3ccc(C(F)(F)F)cc3)ccc2O[C@H]1CN(C)CC1CCCCC1`, which AC50 [5] is on record?
**A.** 8.8 µM (active)

**Q.** And the AC50 [6]?
**A.** 18.7 µM (active)

**Q.** For `Cc1ccc(-c2nc(C(=O)NCCCN(C)C)cc3c2[nH]c2ccccc23)cc1`, which AC50 [7] is on record?
**A.** 11.2 µM (active)

**Q.** What about the AC50 [8] of the same compound?
**A.** 10.9 µM (active)

**Q.** What about the AC50 [9] of the same compound?
**A.** 2.77 µM (active)

**Q.** For `O=c1cc(CN2CCCCCCC2)c2ccccc2o1`, which IC50 [4] is on record?
**A.** 41.5 µM (inactive)

**Q.** With `O=C1NC(=S)N(c2ccccc2)C(=O)/C1=C/c1ccco1` as the compound, how does the EC50 [10] read?
**A.** 32.7 µM (active)

**Q.** And the IC50 [11]?
**A.** 811 nM (active)

**Q.** And the IC50 [12]?
**A.** 8.35 µM (active)

**Q.** For `CN1CCN(c2nc(-c3cccnc3)nc3ccccc23)CC1`, which AC50 [8] is on record?
**A.** 21.1 µM (active)

**Q.** And the IC50 [13]?
**A.** > 100 µM (active)

**Q.** What about the AC50 (Cytochrome P450 3A4) of the same compound?
**A.** 25.1 µM (inconclusive)

**Q.** Which results are given for `c1ccc(Nc2cc(Nc3ccccc3)[nH]n2)cc1`?
**A.** CC50 [14]: 100 µM (active); IC50 [12]: 50.9 µM (active)

**Q.** Which results are given for `CC1CCCCN1Cc1c(O)ccc2c(O)c(-c3nc4ccccc4s3)c(=N)oc12` (stereo unspecified)?
**A.** IC50 (Protein skinhead-1): 4.74 µM (active); CC50 [14]: 93.1 µM (active)
